molecular target: recombinant human integrin α4β7 (binding to recombinant human MAdCAM-1) (Homo sapiens (Human), UniProt P13612+P26010); experiment: MAdCAM-1/α4β7 integrin binding inhibition activity evaluation test (α4β7-MAdCAM-1 ELISA); conditions: plate-coated recombinant human MAdCAM-1, recombinant human α4β7, 2 h room temperature, free form of compound
Method: EXAMPLE: MADCAM-1/α4β7 INTEGRIN BINDING INHIBITION ACTIVITY EVALUATION TEST (α4β7-MADCAM-1 ELISA)
Coat the 96-well microplate (Costar) with 50 μL of recombinant human MAdCAM-1 (R&D Systems) solution per well, and incubate overnight (12-18 hours) at 4° C. Wash three times with 150 μL of TBS buffer per well. Block plate with 150 μL per well with blocking buffer for 1 h at 37° C. Wash three times with 150 μL of TBS buffer per well. Dilute the recombinant human integrin α4β7 (R&D Systems) with TBS buffer containing 0.1% bovine serum albumin (BSA), then add to the 96 well plate with 50 μL per well. Add 1 μL of test compound or DMSO, cover, incubate at room temperature for 2 h, wash three times with 150 μL of TBS buffer per well. Dilute the anti-β7 antibody (R&D Systems) with 0.1% BSA TBS buffer, then add to the 96 well plate with 50 μL per well, cover, incubate at room temperature for 1 h, wash three times with 150 μL of TBS buffer per well. Add 50 μL of streptavidin-HRP (R&D Systems) per well, incubate at room temperature for 20 min, wash three times with 150 μL of TBS buffer per well. Add 50 μL of TMB substrate solution (Sigma) per well, incubate at room temperature for 5-30 min, and add 25 μL of stop solution per well to stop the reaction. Finally, measure absorbance at 450 nm with microplate reader (SpectraMax 340PC. Molecular Devices). Repeat the test to find the binding rate of cells at each concentration when the absorbance of the well without the test substance is used as 100%, and calculate the concentration IC50 that causes 50% binding inhibition and summarize the results in Table 1.
It should be stated that, as a test compound, the free form of the compound synthesized in the above examples is used.

Chain of recombinant human integrin α4β7 (binding to recombinant human MAdCAM-1) (P13612 34-970): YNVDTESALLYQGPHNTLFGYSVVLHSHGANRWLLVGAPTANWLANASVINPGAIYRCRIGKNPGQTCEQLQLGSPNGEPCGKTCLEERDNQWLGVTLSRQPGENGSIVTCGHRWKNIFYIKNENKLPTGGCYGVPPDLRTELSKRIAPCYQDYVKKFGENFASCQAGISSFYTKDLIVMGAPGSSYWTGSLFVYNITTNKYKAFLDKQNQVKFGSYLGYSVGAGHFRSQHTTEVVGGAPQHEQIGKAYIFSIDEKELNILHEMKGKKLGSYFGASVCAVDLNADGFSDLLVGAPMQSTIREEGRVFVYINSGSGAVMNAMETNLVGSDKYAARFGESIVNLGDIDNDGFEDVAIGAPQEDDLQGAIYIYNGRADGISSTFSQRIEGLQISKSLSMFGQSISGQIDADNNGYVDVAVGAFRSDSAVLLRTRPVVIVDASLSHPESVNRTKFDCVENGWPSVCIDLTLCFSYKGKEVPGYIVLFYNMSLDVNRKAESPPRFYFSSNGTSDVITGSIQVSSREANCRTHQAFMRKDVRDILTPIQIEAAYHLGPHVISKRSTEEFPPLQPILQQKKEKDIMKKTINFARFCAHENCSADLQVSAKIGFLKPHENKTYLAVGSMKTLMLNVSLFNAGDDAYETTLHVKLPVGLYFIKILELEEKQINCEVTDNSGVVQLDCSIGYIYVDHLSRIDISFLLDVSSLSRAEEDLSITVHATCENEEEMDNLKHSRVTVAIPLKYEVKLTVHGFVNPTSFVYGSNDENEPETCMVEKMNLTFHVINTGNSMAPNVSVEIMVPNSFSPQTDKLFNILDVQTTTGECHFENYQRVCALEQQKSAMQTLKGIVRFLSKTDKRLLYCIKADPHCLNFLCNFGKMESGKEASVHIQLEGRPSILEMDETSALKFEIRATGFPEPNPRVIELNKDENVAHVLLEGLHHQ
Chain of recombinant human integrin α4β7 (binding to recombinant human MAdCAM-1) (P26010 20-723): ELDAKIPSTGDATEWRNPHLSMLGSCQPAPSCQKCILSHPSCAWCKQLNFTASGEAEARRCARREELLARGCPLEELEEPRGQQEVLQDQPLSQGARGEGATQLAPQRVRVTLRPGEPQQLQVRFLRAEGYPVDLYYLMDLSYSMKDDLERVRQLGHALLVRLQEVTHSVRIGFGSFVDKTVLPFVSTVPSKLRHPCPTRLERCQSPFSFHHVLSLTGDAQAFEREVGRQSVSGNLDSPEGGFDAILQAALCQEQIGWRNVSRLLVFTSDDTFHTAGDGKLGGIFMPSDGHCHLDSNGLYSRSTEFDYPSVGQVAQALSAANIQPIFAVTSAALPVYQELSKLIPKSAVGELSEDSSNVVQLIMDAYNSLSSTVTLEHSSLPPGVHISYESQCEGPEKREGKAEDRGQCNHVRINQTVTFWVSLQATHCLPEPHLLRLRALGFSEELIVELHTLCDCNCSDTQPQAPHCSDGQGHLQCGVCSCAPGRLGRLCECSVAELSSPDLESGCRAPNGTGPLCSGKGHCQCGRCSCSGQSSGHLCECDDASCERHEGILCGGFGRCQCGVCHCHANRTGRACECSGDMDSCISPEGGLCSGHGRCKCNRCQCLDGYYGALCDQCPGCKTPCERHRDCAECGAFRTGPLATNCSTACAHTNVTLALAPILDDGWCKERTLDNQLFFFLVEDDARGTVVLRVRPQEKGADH

| Compound | IC50 |
| --- | --- |
| Cn1c(=O)n(-c2ccc(C[C@H](NC(=O)c3c(F)cccc3Cl)C(=O)O)cc2)c2cc(Cl)c(Cl)cc21 [Example 32, (S)-2-(2-chloro-6-fluorobenzoylamino)-3-(4-(5,6-dichloro-3-methyl-2-oxo-2,3-dihydro-H-benzo[d]imidazol-1-yl)phenyl)propionic acid] | 4.19 nM |
| O=C(N[C@@H](Cc1ccc(-n2c(=O)n(C3CC3)c3cccc(Cl)c32)cc1)C(=O)O)c1c(Cl)cccc1Cl [Example 25, (S)-3-(4-(7-chloro-3-cyclopropyl-2-oxo-2,3-dihydro-1H-benzo[d]imidazol-1-yl)phenyl)-2-(2,6-dichlorobenzamido)propionic acid] | 7.5 nM |
| COc1cccc2c1N(c1ccc(C[C@H](NC(=O)c3c(Cl)cccc3Cl)C(=O)O)cc1)C(=O)C21CC1 [Example 3, (S)-2-(2,6-dichlorobenzamido)-3-(4-(7′-methoxy-2′-oxospiro[cyclopropane-1,3′-indoline]-1′-yl)phenyl)propionic acid] | 5.48 nM |
| Cn1c(=O)n(-c2ccc(C[C@H](NC(=O)c3c(Cl)cc(N4CCOCC4)cc3Cl)C(=O)O)cc2)c2c(Cl)cccc21 [Example 39] | 3.65 nM |
| O=C(N[C@@H](Cc1ccc(N2C(=O)C3(CC3)c3cccc(Cl)c32)cc1)C(=O)O)c1c(Cl)cc(Cl)cc1Cl [Example 17, (S)-3-(4-(7′-chloro-2′-oxospiro[cyclopropane-1,3′-indoline]-1′-yl)phenyl)-2-(2,4,6-trichlorobenzoylamino)propionic acid] | 64.2 nM |
| O=C(N[C@@H](Cc1ccc(N2C(=O)C3(CC3)c3ccc(F)cc32)cc1)C(=O)O)c1c(Cl)cccc1Cl [Example 4, (S)-2-(2,6-dichlorobenzamido)-3-(4-(6′-fluoro-2′-oxospiro[cyclopropane-1,3′-indoline]-1′-yl)phenyl)propionic acid] | 2.54 nM |
| Cn1c(=S)n(-c2ccc(C[C@H](NC(=O)c3c(F)cccc3Cl)C(=O)O)cc2)c2c(Cl)cccc21 [Example 26, (S)-3-(4-(7-chloro-3-methyl-2-thio-2,3-dihydro-1H-benzo[d]imidazol-1-yl)phenyl)-2-(2-chloro-6-fluorobenzoylamino)propionic acid] | 160 nM |
| CN(C)c1ccc2c(c1)n(C)c(=O)n2-c1ccc(C[C@H](NC(=O)c2c(F)cccc2Cl)C(=O)O)cc1 [Example 37, (S)-2-(2-chloro-6-fluorobenzoylamino)-3-(4-(5-(dimethylamino)-3-methyl-2-oxo-2,3-dihydro-1H-benzo[d]imidazol-1-yl)phenyl)propionic acid] | 5.09 nM |
| CN(C)c1ccc2c(c1)C1(CC1)C(=O)N2c1ccc(C[C@H](NC(=O)c2c(F)cccc2Cl)C(=O)O)cc1 [Example 12, (S)-2-(2-chloro-6-fluorobenzamide)-3-(4-(5′-(dimethylamino)-2′-oxospiro[cyclopropane-1,3′-indoline]-1′-yl)phenyl)propionic acid] | 4.15 nM |
| O=C(N[C@@H](Cc1ccc(-n2c(=O)n(C3CC3)c3cc(Cl)ccc32)cc1)C(=O)O)c1c(Cl)cccc1Cl [Example 23, (S)-3-(4-(5-chloro-3-cyclopropyl-2-oxo-2,3-dihydro-1H-benzo[d]imidazol-1-yl)phenyl)-2-(2,6-dichlorobenzamido)propionic acid] | 143 nM |
| Cn1c(=O)n(-c2ccc(C[C@H](NC(=O)c3c(F)cccc3Cl)C(=O)O)cc2)c2c(Cl)cccc21 [Example 22, (S)-3-(4-(7-chloro-3-methyl-2-oxo-2,3-dihydro-1H-benzo-1H-imidazol-1-yl)phenyl)-2-(2-chloro-6-fluorobenzamide)propionic acid] | 1.19 nM |
| Cn1c(=O)n(-c2ccc(C[C@H](NC(=O)c3c(F)cccc3Cl)C(=O)O)cc2)c2ccc(F)c(F)c21 [Example 34, (S)-2-(2-chloro-6-fluorobenzoylamino)-3-(4-(4,5-difluoro-3-methyl-2-oxo-2,3-dihydro-1H-benzo[d]imidazol-1-yl)phenyl)propionic acid] | 10.5 nM |
| O=C(N[C@@H](Cc1ccc(N2C(=O)C3(CC3)c3cccc(F)c32)cc1)C(=O)O)c1c(F)cccc1Cl [Example 14, (S)-2-(2-chloro-6-fluorobenzamide)-3-(4-(7-fluoro-2′-oxospiro[cyclopropane-1,3′-indoline]-1′-yl)phenyl)propionic acid] | 6.21 nM |
| O=C(N[C@@H](Cc1ccc(N2C(=O)C3(CC3)c3cccc(Cl)c32)cc1)C(=O)O)c1c(Cl)cc(N2CCOCC2)cc1Cl [Example 19, (S)-3-(4-(7′-chloro-2′-oxospiro[cyclopropane-1,3′-indoline]-1′-yl)phenyl)-2-(2,6-dichloro-4-morpholinobenzoylamino)propionic acid] | 11.4 nM |
| CN(C)c1ccc2c(c1)n(-c1ccc(C[C@H](NC(=O)c3c(F)cccc3Cl)C(=O)O)cc1)c(=O)n2C [Example 36, (S)-2-(2-chloro-6-fluorobenzoylamino)-3-(4-(6-(dimethylamino)-3-methyl-2-oxo-2,3-dihydro-1H-benzo[d]imidazol-1-yl)phenyl)propionic acid] | 1.51 nM |
| Cn1c(=O)n(-c2ccc(C[C@H](NC(=O)c3c(Cl)cc(Cl)cc3Cl)C(=O)O)cc2)c2c(Cl)cccc21 [Example 38, (S)-3-(4-(7-chloro-3-methyl-2-oxo-2,3-dihydro-1H-benzo[d]imidazol-1-yl)phenyl)-2-(2,4,6-trichlorobenzamido)propionic acid] | 27.9 nM |
| COc1cccc2c1n(-c1ccc(C[C@H](NC(=O)c3c(F)cccc3Cl)C(=O)O)cc1)c(=O)n2C [Example 35, (S)-2-(2-chloro-6-fluorobenzoylamino)-3-(4-(7-methoxy-3-methyl-2-oxo-2,3-dihydro-1H-benzo[d]imidazol-1-yl)phenyl)propionic acid] | 0.45 nM |
| O=C(N[C@@H](Cc1ccc(-n2c(=O)n(C3CC3)c3ccc(Cl)cc32)cc1)C(=O)O)c1c(Cl)cccc1Cl [Example 24, (S)-3-(4-(6-chloro-3-cyclopropyl-2-oxo-2,3-dihydro-1H-benzo[d]imidazol-1-yl)phenyl)-2-(2,6-dichlorobenzamido)propionic acid] | 5.67 nM |
| O=C(N[C@@H](Cc1ccc(-n2c(=O)n(C3CCOCC3)c3cccc(Cl)c32)cc1)C(=O)O)c1c(F)cccc1Cl [Example 28, (S)-3-(4-(7-chloro-2-oxo-3-(tetrahydro-2H-pyran-4-yl)-2,3-dihydro-1H-benzo[d]imidazol-1-yl)phenyl)-2-(2-chloro-6-fluorobenzoylamino)propionic acid] | 10.9 nM |
| CC1(C)C(=O)N(c2ccc(C[C@H](NC(=O)c3c(F)cccc3Cl)C(=O)O)cc2)c2c(Cl)cccc21 [Example 10, (S)-3-(4-(7-chloro-3,3-dimethyl-2-oxoindoline-1-yl)phenyl)-2-(2-chloro-6-fluorobenzamide)propionic acid] | 38.8 nM |
| O=C(N[C@@H](Cc1ccc(N2C(=O)C3(CC3)c3cc(F)c(Cl)cc32)cc1)C(=O)O)c1c(F)cccc1Cl [Example 8, (S)-3-(4-(6′-chloro-5′-fluoro-2′-oxospiro[cyclopropane-1,3′-indoline]-1′-yl)phenyl)-2-(2-chloro-6-fluorobenzamide)propionic acid] | 17.6 nM |
| Cn1c(=O)n(-c2ccc(C[C@H](NC(=O)c3c(F)cccc3Cl)C(=O)O)cc2)c2c(F)cc(F)cc21 [Example 31, (S)-2-(2-chloro-6-fluorobenzoylamino)-3-(4-(5,7-difluoro-3-methyl-2-oxo-2,3-dihydro-H-benzo[d]imidazol-1-yl)phenyl)propionic acid] | 5.34 nM |
| O=C(N[C@@H](Cc1ccc(N2C(=O)C3(CC3)c3cc(F)ccc32)cc1)C(=O)O)c1c(F)cccc1Cl [Example 9, (S)-2-(2-chloro-6-fluorobenzamide)-3-(4-(5′-fluoro-2′-oxospiro[cyclopropane-1,3′-indoline]-1′-yl)phenyl)propionic acid] | 95.5 nM |
| O=C(N[C@@H](Cc1ccc(N2C(=O)C3(CC3)c3cccc(Cl)c32)cc1)C(=O)O)c1c(Cl)cc(N2CCC(N3CCOCC3)CC2)cc1Cl [Example 21, (S)-3-(4-(7′-chloro-2′-oxospiro[cyclopropane-1,3′-indoline]-1′-yl)phenyl)-2-(2,6-dichloro-4-(4-morpholinopiperidin-1-yl)benzoylamino)propionic acid] | 23.7 nM |
| O=C(N[C@@H](Cc1ccc(N2C(=O)C3(CC3)c3cccc(Cl)c32)cc1)C(=O)O)c1c(Cl)cc(N2CC3CC2CO3)cc1Cl (some centres unmarked) [Example 20] | 4.15 nM |
| O=C(N[C@@H](Cc1ccc(N2C(=O)C3(CC3)c3cccnc32)cc1)C(=O)O)c1c(Cl)cccc1Cl [Example 16, (S)-2-(2,6-dichlorobenzamido)-3-(4-(2′-oxospiro[cyclopropane-1,3′-pyrrolo[2,3-b]pyridine]-1′(2′H)-yl)phenyl)propionic acid] | 0.75 nM |
